In PubChem BioAssay AID463142 (The Scripps Research Institute Molecular Screening Center, 2010):

Molecular target: Glutathione S-transferase omega-1 (Homo sapiens) (UniProt P78417)
Test: GSTO1 inhibitor potency, recombinant enzyme, late-stage follow-up, biochemical, SE-Rh probe, in-gel fluorescence, powder samples, set 2 (AID 463142)
Settings: recombinant GSTO1, SE-Rh probe labeling

Chain of Glutathione S-transferase omega-1 (Homo sapiens) (P78417 whole entry, looked up): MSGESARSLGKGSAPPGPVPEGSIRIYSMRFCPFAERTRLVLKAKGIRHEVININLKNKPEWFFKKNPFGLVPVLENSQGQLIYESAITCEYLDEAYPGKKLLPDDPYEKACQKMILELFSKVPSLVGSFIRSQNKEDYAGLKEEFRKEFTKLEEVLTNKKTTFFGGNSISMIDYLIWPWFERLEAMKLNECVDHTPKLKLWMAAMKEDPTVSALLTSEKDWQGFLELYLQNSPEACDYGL

O=C(CCl)N(CCCNC(=O)C(F)(F)F)c1ccc(Cl)cc1
IC50: 40 nM
